The source of these data is patent US9241497B2, “Method and apparatus for treatment of food products” (The United States of America, as represented by the …, priority 2005, dated 2016).

Holding throughout (format): cell-based, Listeria monocytogenes
Test [1] deals with L. monocytogenes. Nature of the test: Lethality studies: ACS and LAE sprayed into shrink-wrap bags, inoculated hams, 24 h at 4° C. The note with it: ca. 7.0 log10 CFU per ham. The source says:
(§1) Bacterial Strains: Using a procedure described previously (Porto, A. C. S., et al., Journal of Food Protection, 65: 308-315 (2002)), approximately equal numbers of each of the following five strains of L. monocytogenes were used as a cocktail in this study: (i) Scott A (serotype 4b, clinical isolate); (ii) H7776 (serotype 4b, frankfurter isolate); (iii) LM-101M (serotype-4b, beef and pork sausage isolate); (iv) F6854 (serotype 1/2a, turkey frankfurter isolate); and (v) MFS-2 (serotype 1/2a, environmental isolate from a pork processing plant). For each experiment isolates were passed twice in brain heart infusion (BHI; Difco Laboratories, Detroit, Mich.) broth at 37° C. so that cells would be in the stationary phase for inoculating hams. Stock cultures were maintained by storage in BHI plus 10% (wt/vol) glycerol in 1.5-ml portions in cryovials and held at −80° C.
Lethality Studies: To evaluate the lethality of acidic calcium sulfate (ACS; Safe2O-RTE 01, Mionix Corp., Naperville, Ill.) and lauramide arginine ester (LAE; Ethyl-N-dodecanoyl-L-arginate hydrochloride; CAS No. 60372-77-2; Mirenat-N, Vedeqsa, Barcelona, Spain; also known as lauric arginate), “table brown” hams (water, ground ham trims, brine, dextrose, sugar, sodium phosphate, sodium erythorbate, and sodium nitrite; ca. 3 pounds each ham) were processed and vacuum-sealed by a commercial processor (Hatfield Quality Meats, Hatfield, Pa.). The hams were boxed, transported back to the laboratory, and stored at 4° C. for up to 7 days. Each ham was aseptically removed from its original packaging, spot inoculated with 2 mL of the cocktail using a pipette to achieve a target level of ca. 7.0 log10 CFU per ham, and then transferred to a high-performance shrink-wrap bag (B2570T, Cryovac, Duncan, S.C.). Just prior to introducing the hams, the inside of each shrink-wrap bag was sprayed with 0, 2, 4, 6, or 8 mL of either a 1:1 (1 part ACS: 1 part dH2O) or 1:2 (1 part ACS:2 parts dH2O) solution of ACS or a 5% (5 parts LAE:95 parts dH2O) or 10% (10 parts LAE:90 parts dH2O) solution of LAE. The antimicrobials for these experiments were introduced via a 24-ounce plastic spray bottle (Koch Supplies, Kansas City, Mo.). Each bag was then vacuum sealed to 950 mBar using a Multivac A300/16 vacuum-packaging unit (Sepp Haggemüller K G, Wolfertschwenden, Germany), submerged in hot (88° C.) water for approximately 5 seconds to shrink the bag, and transferred to a 4° C. incubator and held for 24 h. In a single trial, three hams were analyzed for each concentration and volume of ACS and LAE tested after 24 h of refrigerated storage.
Microbiological Analyses: Surviving L. monocytogenes were enumerated using the USDA/ARS package rinse method (Luchansky J. B., et al., Journal of Food Protection, 65: 567-570 (2002)) and spread-plating 250 uL of the resulting rinse fluid or dilutions thereof onto duplicate modified Oxford agar plates (MOX; Cook, L. V., Isolation and identification of Listeria monocytogenes from red meat, poultry, egg, and environmental samples, Chapter 8, In: USDA/FSIS Microbiology Laboratory Guidebook (3rd ed., Revision 2), Washington, D.C. (1999)) using a sterile cell spreader and incubating for 48 h at 37° C. Listeria numbers were expressed as log10 CFU per ham with each package containing a single ham; the detection limit was 1.48 log10 CFU/ham. […]

Test [2] deals with L. monocytogenes. The test is described as follows: Shelf-life studies: outgrowth on hams during refrigerated storage up to 60 days. The conditions noted are these: for reduction of pathogen levels relative to untreated samples: after 24 h at 4° C.; for levels of L. monocytogenes compared to untreated control hams (statistical analyses): all volumes tested.
Description: as §1
Shelf-Life Studies: To evaluate the efficacy of ACS and LAE over the expected refrigerated shelf life of the product, a fresh batch of the same formulation of hams was obtained from the same commercial manufacturer as described previously. For these studies, hams were spot inoculated with 2 mL of the L. monocytogenes cocktail to achieve a target level of either 3.0 or 7.0 log10 CFU per ham. At each inoculation level one portion of the hams was transferred to shrink-wrap bags that were previously sprayed on the inside with 4, 6, or 8 mL of a 1:2 solution of ACS applied using a commercial spraying apparatus (AutoJet Spray System #45570-22-10-120V, Spraying Systems Co., Wheaton, Ill.) and commercial bagging apparatus (Taped Bag Loader #BL189, Cryovac). An otherwise similar portion of the inoculated hams was transferred to shrink-wrap bags that just prior to introduction of the hams were sprayed with 4, 6, or 8 mL of a 5% LAE solution using the commercial spraying and bagging apparatus. Control hams were also spot inoculated with either 3.0 or 7.0 log10 CFU of L. monocytogenes per ham and were transferred to shrink-wrap bags that were not sprayed with either compound. As described previously, hams were vacuum-sealed, submerged in hot (88° C.) water, and stored at 4° C. Hams were analyzed 1, 7, 14, 21, 28, 40, and, 60 days post-inoculation. For each of two trials, three hams were analyzed at each sampling point for both inoculation levels and for both chemicals tested.
(§2) Microbiological Analyses: Surviving L. monocytogenes were enumerated using the USDA/ARS package rinse method (Luchansky J. B., et al., Journal of Food Protection, 65: 567-570 (2002)) and spread-plating 250 uL of the resulting rinse fluid or dilutions thereof onto duplicate modified Oxford agar plates (MOX; Cook, L. V., Isolation and identification of Listeria monocytogenes from red meat, poultry, egg, and environmental samples, Chapter 8, In: USDA/FSIS Microbiology Laboratory Guidebook (3rd ed., Revision 2), Washington, D.C. (1999)) using a sterile cell spreader and incubating for 48 h at 37° C. Listeria numbers were expressed as log10 CFU per ham with each package containing a single ham; the detection limit was 1.48 log10 CFU/ham. Periodically, isolates were retained from randomly selected samples and confirmed as L. monocytogenes following the recommended/standard USDA/FSIS protocol (Cook, 1999).

Test [3] relates to L. monocytogenes. The test is described as follows: Validation studies of initial post-process lethality on hams. The conditions noted are these: for average decrease in pathogen levels compared to untreated control hams: ca. 7.0 log10 CFU per ham, after 24 h at 4° C.
Description: as §1
Validation Studies: To validate the initial post-process lethality of ACS and LAE, a fresh batch of the same formulation of hams was obtained from the same commercial manufacturer as described previously. The hams were spot inoculated with 2 mL of the L. monocytogenes cocktail to achieve a target level of ca. 7.0 log10 CFU per ham, transferred to shrink-wrap bags (Cryovac) that were previously sprayed on the inside with 0, 2.5, 4.5, or 6.5 mL of a 1:2 solution of ACS or a 5% solution of LAE, vacuum sealed, submerged in hot (88° C.) water, and placed at 4° C. In each of three trials, three hams were analyzed at each concentration and volume of ACS and LAE tested after 24 h of refrigerated storage.
as §2

Consider `CCCCCCCCCCCC(=O)N[C@@H](CCCNC(=N)N)C(=O)OCC.Cl` [LAE, Ethyl-N-dodecanoyl-L-arginate hydrochloride], for which the “decrease in L. monocytogenes levels” value in the test on L. monocytogenes [1] (2 mL of 5% solution of LAE) is reported as “ca. 3.3 log10 CFU/ham”; with L. monocytogenes [1] (4 mL of 5% solution of LAE), “ca. 6.5 log10 CFU/ham”; in the test on L. monocytogenes [1] (6 mL of 5% solution of LAE), about 5.6 log10 CFU/ham; in the test with L. monocytogenes [1] (8 mL of 5% solution of LAE), “ca. 6.5 log10 CFU/ham”. The “decrease in pathogen levels” value in the test with L. monocytogenes [1] (10% solution of LAE, all 4 application volumes (2, 4, 6, 8 mL)) was “ca. 6.5 log10 CFU/ham”. The “levels of the pathogen within 24 h” value in the test with L. monocytogenes [2] (4, 6, and 8 mL of 5% solution of LAE, inoculum ca. 3.0 log10 CFU/ham, 4° C., detection limit 1.48 log10 CFU/ham) is “below the limit of detection”. In the test with L. monocytogenes [2] (4 and 6 mL of 5% LAE solution, inoculum ca. 3.0 log10 CFU/ham, 4° C.), the “increase of L. monocytogenes levels after 60 days” value is given as “ca. 2.0 log10 CFU/ham”. The “increase of pathogen levels thereafter (after 24 h) within 60 days” value with L. monocytogenes [2] (4 mL of 5% solution of LAE, inoculum ca. 7.0 log10 CFU/ham, 4° C.) is reported as “ca. 4.6 log10 CFU/ham”; in the test on L. monocytogenes [2] (6 mL of 5% solution of LAE, inoculum ca. 7.0 log10 CFU/ham, 4° C.) it was about 3.0 log10 CFU/ham; in the test on L. monocytogenes [2] (8 mL of 5% solution of LAE, inoculum ca. 7.0 log10 CFU/ham, 4° C.), about 2.0 log10 CFU/ham. Besides, the “reduction of pathogen levels relative to untreated samples” value in the test on L. monocytogenes [2] (4 mL of 5% solution of LAE, inoculum ca. 7.0 log10 CFU/ham) is reported as about 5.1 log10 CFU/ham; in the test on L. monocytogenes [2] (6 mL of 5% solution of LAE, inoculum ca. 7.0 log10 CFU/ham), about 5.4 log10 CFU/ham; with L. monocytogenes [2] (8 mL of 5% solution of LAE, inoculum ca. 7.0 log10 CFU/ham) it was about 5.5 log10 CFU/ham. Further, the “levels of L. monocytogenes after 60 days” value in the test on L. monocytogenes [2] (8 mL of 5% LAE solution, inoculum ca. 3.0 log10 CFU/ham, 4° C., detection limit 1.48 log10 CFU/ham) was “remained below the detection limit”. Besides, the “duration of control of further outgrowth of L. monocytogenes” value with L. monocytogenes [2] (initial inoculum of ca. 7.0 log10 CFU/ham, refrigerated storage) is reported as at least 28 days. Further, the “levels of L. monocytogenes compared to untreated control hams (statistical analyses)” value is on record as “appreciably lower” in the test on L. monocytogenes [2] (inoculum ca. 3.0 log10 CFU/ham, day 1 through day 40) and “appreciably lower” in the test with L. monocytogenes [2] (inoculum ca. 7.0 log10 CFU/ham, day 1 through day 60). The “average decrease in pathogen levels compared to untreated control hams” value was “ca. 4.6 log10 CFU/ham” with L. monocytogenes [3] (2.5 mL of 5% solution of LAE), about 5.9 log10 CFU/ham in the test on L. monocytogenes [3] (4.5 mL of 5% solution of LAE) and about 6.1 log10 CFU/ham with L. monocytogenes [3] (6.5 mL of 5% solution of LAE). Further, the “reduction of levels of L. monocytogenes on the surface of hams (conclusion)” value in the test on L. monocytogenes [3] (5% solution of LAE, within 24 h at 4° C.) is on record as “at least 5.0 log10 CFU/ham”.
